SMILES strings stand for the structures.

In the test the test system is AM2.2 cells FAP-GPR32, fluorogen binding, flow cytometry MCF. Nature of the test: interference with FAP fluorogen signal – AM2.2 cells, flow cytometry, powder set 4, counter-screen for beta2AR agonist internalization project, dose response (AID 651875). A general note: A flow cytometer gives signals particle by particle.
`Cc1ccc(S(=O)(=O)N(C)CC(=O)N2CCN(c3ccccn3)CC2)cc1`: the EC50 was 0.0037 µM.

As to `O=C(C1CCC(=O)N1S(=O)(=O)c1ccccc1)N1CCN(c2ccccn2)CC1` (stereo not given), the EC50 is 0.0496 µM. On to `O=C(CN(Cc1ccccc1)S(=O)(=O)c1ccc(Cl)cc1)N1CCN(c2ccccn2)CC1`, for which the EC50 is 0.316 µM. `COc1ccccc1N1CCN(C(=O)CN(C)S(=O)(=O)c2ccc(C)cc2)CC1`: the EC50 was 0.974 µM. To `CC(=O)Nc1ccc(S(=O)(=O)N2CCCCC2c2cccnc2)cc1` (stereo not given) belongs 0.0156 µM.

A word on the EC50: it is the concentration that produces a half-maximal response.
